Measured values from article PMC12711574 (Nature, 2025).
Like-named read-outs stand apart in the source and are kept apart here.

Tests used:
[1] = target: T1, MOR–Rluc8 and Gαi1β1γ2–GFP2 (Homo sapiens, UniProt P35372+P63096); format: cell-based
[2] = target: T1, MOR–Rluc8 and Gαi1β1γ2–GFP2; format: cell-based; conditions: MOR in the apo state, mean ± s.d.

T1 sequence (P63096 2-354 limits assumed): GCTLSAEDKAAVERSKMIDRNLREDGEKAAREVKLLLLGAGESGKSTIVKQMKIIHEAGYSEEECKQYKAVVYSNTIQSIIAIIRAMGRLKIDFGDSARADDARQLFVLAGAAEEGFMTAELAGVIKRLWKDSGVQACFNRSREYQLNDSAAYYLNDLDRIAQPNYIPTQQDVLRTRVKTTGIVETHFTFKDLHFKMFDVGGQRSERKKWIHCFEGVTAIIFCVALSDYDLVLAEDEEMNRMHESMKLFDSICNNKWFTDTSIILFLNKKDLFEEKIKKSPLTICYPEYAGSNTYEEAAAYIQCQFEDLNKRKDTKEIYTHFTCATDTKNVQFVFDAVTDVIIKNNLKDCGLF
T1 sequence (P35372 whole entry): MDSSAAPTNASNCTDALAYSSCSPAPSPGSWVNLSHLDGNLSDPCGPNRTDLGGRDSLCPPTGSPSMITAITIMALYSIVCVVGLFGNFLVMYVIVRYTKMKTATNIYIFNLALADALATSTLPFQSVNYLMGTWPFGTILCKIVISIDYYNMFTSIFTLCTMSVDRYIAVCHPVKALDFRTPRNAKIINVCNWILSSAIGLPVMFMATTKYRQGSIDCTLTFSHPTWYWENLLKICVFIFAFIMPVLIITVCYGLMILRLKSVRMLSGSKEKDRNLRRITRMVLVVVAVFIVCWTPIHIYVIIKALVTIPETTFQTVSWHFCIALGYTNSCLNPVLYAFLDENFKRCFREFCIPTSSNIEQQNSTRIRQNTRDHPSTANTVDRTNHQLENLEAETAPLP
T1 sequence (P62873 2-340 partner limits assumed): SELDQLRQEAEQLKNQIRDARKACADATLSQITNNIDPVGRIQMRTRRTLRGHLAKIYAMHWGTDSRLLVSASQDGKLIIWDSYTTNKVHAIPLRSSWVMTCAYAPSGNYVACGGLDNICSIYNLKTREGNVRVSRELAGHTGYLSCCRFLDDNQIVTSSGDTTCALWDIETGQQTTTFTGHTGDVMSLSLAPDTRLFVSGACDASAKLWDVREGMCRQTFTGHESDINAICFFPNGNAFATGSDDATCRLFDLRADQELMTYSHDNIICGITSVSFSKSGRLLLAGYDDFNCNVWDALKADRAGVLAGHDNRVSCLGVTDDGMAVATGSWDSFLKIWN
T1 sequence (P59768 2-68 partner limits assumed): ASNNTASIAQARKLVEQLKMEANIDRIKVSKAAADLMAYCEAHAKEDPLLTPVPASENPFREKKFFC

C[C@H]1CN(C[C@H](Cc2ccccc2)C(=O)NCC(=O)O)CC[C@@]1(C)c1cccc(O)c1 [Alvimopan]
signal changes [1]: too small to interpret

Nc1nc2c(ncn2[C@@H]2O[C@H](COP(=O)(O)OP(O)(O)=S)[C@@H](O)[C@H]2O)c(=O)[nH]1 [GDPβS]
EC50 ([2]; read-out: GDPβS EC50): 57 ± 14 nM

Nc1nc2c(ncn2[C@@H]2O[C@H](COP(=O)(O)OP(=O)(O)OP(O)(O)=S)[C@@H](O)[C@H]2O)c(=O)[nH]1 [GTPγS]
EC50 ([2]; read-out: GTPγS EC50): 3.8 ± 0.18 nM
